{"source": "patent US8470534B2", "about": "“Methods of predicting resistance or sensitivity to therapies for cancer” (priority 2006, dated 2013)", "key": {"[1]": {"system": "ER-positive human breast tumors", "experiment": "Recurrence outcome of ER-positive breast cancer patients on Tam monotherapy by RB/E2F target gene expression group", "assay_type": "in vivo", "protocol": "To determine the significance of RB/E2F target gene expression in human breast cancer, a tumor microarray data set representing 60 breast cancer patients with ER-positive disease who are treated with Tam monotherapy is analyzed. The tumor specimens in all cases are both micro- and macrodissected. […] This clustering placed the macro- and micro-dissected samples from 59 of 60 patients in the same gene expression groups, with only 1 tumor signature split between the high and medium gene expression groups on the condition tree.\nTo address the importance of the RB deficiency signature on therapeutic response, patient outcome is examined. […] For each patient, the time to disease recurrence is known, and a recurrence-free survival curve is generated (FIG. 6C). Patients responded poorly to Tam in the high expression group, wherein the median recurrence-free survival is 62.5 months, and only 35% remained recurrence free. […] Thus, compromised control of the RB/E2F axis is associated with poor response to Tam in human breast cancer."}, "[2]": {"system": "MCF7, T47D, and Zr-75-1 cells", "experiment": "BrdU incorporation under hormone deprivation / antiestrogen (CDT, CDT/Tam, CDT/ICI)", "assay_type": "cell-based, human", "protocol": "To understand the impact of RB deficiency on the response to hormone deprivation therapy, cells are cultured in CDT, CDT/Tam, or in the presence of pure antiestrogen, ICI182780 (CDT/ICI). Following treatment with these modalities, cells are labeled with BrdU to determine the influence of each agent on cell-cycle progression and the corresponding influence of RB knockdown on this response (FIG. 4B). These experiments are recapitulated in the polyclonal populations of T47D and Zr-75-1 donor and siRb88 cells (FIG. 4C). […] To elucidate the long-term growth effects of these therapies, cell proliferation assays are performed over 9 days. RB-proficient and -deficient MCF7 cells are seeded at equal densities and cultured in CDT/Tam (FIG. 4D). […] Similar results are evident in the same experiments with both T47D and Zr-75-1 RB-proficient and -deficient polyclonal pools (FIG. 4E).\nRB target gene upregulation is a prognostic indicator in human breast cancers. RB performs a myriad of functions, the most well understood being repression of the E2F family of transcription factors. To determine the specific influence of the E2F axis on bypassing therapy, an activator E2F is overexpressed in wild-type MCF7 cells. Specifically, cells are infected either with an adenovirus encoding E2F3 (ad-E2F3) or a control virus (Ad-LacZ) and are harvested 3 days after infection for immunoblot analysis of levels of known RB-E2F targets (FIG. 5A). […] As expected, no changes are detected in RB levels, and CDK4 serves as a loading control. In order to assess the response to therapeutic intervention, 3 days after infection Ad-E2F3- or AdLacZ-infected MCF7 cells are separated into 2 major treatment groups: hormone therapy and DNA damage therapy. The estrogen ablation group is then cultured in the absence of estrogen and in the presence of Tam and ICI as described above. Alternatively, the cells in the DNA damage therapy group are treated with 16 μM CDDP for 18 hours prior to washing or treatment with 5 Gy IR. Cells from both therapy groups are BrdU labeled, and the replicative fraction of treated cells is determined with respect to untreated control cells (FIG. 5B).\nTo study the effect of estrogen depletion, cells are cultured for 72 hours in phenol red-free DMEM supplemented with 10% CDT serum with addition of 10^−9 M 4-HydroxyTam or 10^−6 M ICI where indicated. Cell growth assays are performed by trypsinizing cells and counting by trypan blue exclusion every 3 days.\nCells treated with IR are exposed to ^137Cs (dose rate: 0.67 Gy/min) at room temperature in tissue culture media. Culture with clinical grade CDDP for 18 hours is performed for all CDDP treatments. For all proliferation studies, cells are labeled with BrdU for 10 hours or 5 hours for LXSN/LXSN-p53dd infected cells, and BrdU immunofluorescence is performed as previously described. All BrdU results are expressed as a percentage of untreated control cells set to 100%, unless otherwise noted."}, "[3]": {"system": "MCF7 donor or siRb xenograft tumors", "experiment": "Nude mouse xenograft therapeutic study", "assay_type": "in vivo, nude mice", "conditions": "for tumor response (size at 4-day intervals): E2 pellet removed", "protocol": "The xenograft model system is then utilized to test the response of RB-deficient tumors to CDDP therapy. Tumors are developed in the flanks of mice by injecting MCF7 donor or siRb cells into the flanks of mice and implanting a […] (E2) pellet into the back. When tumors reached 100-110 mm^3, mice received 5 mg/kg CDDP every 4 days for 5 courses.\nTo assess the role of RB in the therapeutic response of MCF7 cells in vivo, the xenograft model is again employed. Upon the attainment of tumors of approximately 100-120 mm^3, mice are deprived of estrogen and treated with Tam. […] (FIG. 4F). […] All tumors are weighed upon exclusion, and RB-deficient tumors are more than 3 times heavier than control tumors following Tam therapy (FIG. 4G).\nFive- to 8-week-old female ovariectomized athymic nude mice are anesthetized, and an E2 pellet (1.7 mg/pellet, 90-day release) or placebo is surgically implanted in the back. Following implantation, 200 μl of a PBS- and phenol red-free Matrigel matrix basement membrane, solution (3:1) containing 2×10^6 cells is injected subcutaneously into the flank, or contralaterally where noted. Tumor volume is measured with calipers every 4 days using the equation V=0.52 (width)^2 ×(length). In the therapeutic studies, when tumor volume reaches 100-120 mm^3, animals are placed into 1 of 3 therapeutic groups (each group containing at least 6 animals): control animals retaining the estrogen pellet, antiestrogen-treated animals, or CDDP-treated animals. Animals in the antiestrogen treatment group are anesthetized, the estrogen pellet is surgically removed, and a Tam pellet (5 mg/pellet, 60-day release) implanted. The CDDP-treated animals receive 5 mg/kg CDDP injected i.p. on a q4dx5 schedule (every 4 days for 5 courses). All animals are injected i.p. with 150 mg/kg BrdU (Sigma-Aldrich) 1 hour prior to euthanization. Xenograft tumors are weighed and fixed in 10% neutral buffered formalin, paraffin embedded, and cut into 5-ÿm sections. For immunohistochemical staining, sections are deparaffinized in xylene and rehydrated through a graded series of ethanol/water solutions. A BrdU detection kit is utilized as recommended by the manufacturer. BrdU incorporation is scored in a blinded manner, and at least 500 cells per section are counted from several random fields."}, "[4]": {"conditions": "high expression group, Tam monotherapy"}}}
{"smiles": "CC/C(=C(\\c1ccccc1)c1ccc(OCCN(C)C)cc1)c1ccccc1", "note": "[Tam, tamoxifen]", "values": [{"measurement": "median recurrence-free survival", "setting": "[1]; [4]", "value": 62.5, "unit": "months"}, {"measurement": "patients remaining recurrence free", "setting": "[1]; [4]", "value": 35, "unit": "%"}, {"measurement": "patients remaining disease free", "setting": "[1]; low/medium RB target gene expression groups, Tam therapy", "value": "greater than 62%"}, {"measurement": "incidence of cancer recurrence", "setting": "[1]; patients in the high RB/E2F target gene group, Tam monotherapy", "value": 65, "unit": "%"}, {"measurement": "incidence of cancer recurrence", "setting": "[1]; patients in the other 2 groups (low/medium), Tam monotherapy", "value": 38, "unit": "%"}, {"measurement": "cell-cycle arrest (replicative fraction, BrdU)", "setting": "[2]; Ad-E2F3-infected versus control infected MCF7 cells, absence of estrogen plus agent", "value": "significantly reduced levels of cell-cycle arrest"}, {"measurement": "cell-cycle inhibition by the agent (BrdU labeling)", "setting": "[2]; RB-depleted cells (MCF7 siRb28, T47D and Zr-75-1 siRb88), CDT serum plus agent, 3 days", "value": "significantly reduced"}, {"measurement": "cell-cycle progression (BrdU labeling)", "setting": "[2]; cells harboring functional RB (MCF7, T47D, Zr-75-1 donor), CDT serum plus agent, 3 days, 10^−9 M 4-HydroxyTam or 10^−6 M ICI", "value": "elicit cell-cycle inhibition"}, {"measurement": "tumor response (size at 4-day intervals)", "setting": "[3]; RB-deficient MCF7 tumors, Tam pellet", "value": "did not regress"}, {"measurement": "tumor size reached in the presence of Tam", "setting": "[3]; RB-deficient MCF7 tumors, therapy started at approximately 100-120 mm^3", "value": "~150", "unit": "mm^3"}, {"measurement": "tumor response (size at 4-day intervals)", "setting": "[3]; RB-proficient MCF7 tumors, Tam pellet 5 mg/pellet", "value": "regressing to nearly immeasurable sizes"}, {"measurement": "tumor weight, RB-deficient tumors relative to control tumors", "setting": "[3]; following Tam therapy", "value": "more than 3 times"}]}
